Data: ChEMBL document CHEMBL1158953, “The Structure of Clathrodin, a Novel Alkaloid Isolated from the Caribbean Sea Sponge Agelas clathrodes” (1991)
≈ marks a conversion by molar mass, not a printed value. Calls of active or inactive are those of the source. The rule behind the calls is not given here.

Legend:
Rana temporaria = organism: Rana temporaria; test: Inhibition of cholinergic receptor in frog skeletal muscle at 0.1 uM to 1000 uM
CHO-K1 = test: Cytotoxicity against CHOK1 cells; assay type: functional; conditions: Cricetulus griseus, read-out: ED50 (the source's name)

Structure (SMILES): Nc1ncc(/C=C/CNC(=O)c2ccc[nH]2)[nH]1 [CLATHRODIN]
- Activity (Rana temporaria): Active
- EC50 (CHO-K1): 1.33 µg/mL (≈ 5.75 µM)
